In patent US6664271B1, “Immunopotentiator agents” (Eli Lilly and Company, priority 1999, dated 2003):

Key:
mononuclear leukocytes [1] = assay: mammalian T-lymphocyte blastogenesis assay, bovine (Example 75); assay type: cell-based
Procedure: (§1) The compound prepared in Example 30, namely (S)-ethyl 1-(2-thiopheneacetyl)-3-peridinecarboxylate, was further evaluated for in vitro T-lymphocyte blastogenic activity from mammalian species other than avian.
(§2) The mammalian blastogenesis assays were conducted with the same protocol as the vian assays with the following exceptions:
(§3) 1. Only mononuclear leukocytes are used for the mammalian assay. The cells are obtained from whole blood by differential centrifugation using Histopague 1.077 (Sigma Chemical Company, St. Louis, Mo).
(§4) 2. 0.5% Fetal Bovine Serum (FBS) [GIBCOBRL, Grand Island N.Y.] is added to RPMI 1640 medium. Exception: Non-human primate plasma is used instead of FBS at 5 ml/liter to RPMI 1640 medium.
(§5) 3. 5×10^5 cells/well were used with the mammalian assays.

mononuclear leukocytes [2] = assay: mammalian T-lymphocyte blastogenesis assay, porcine (Example 75); assay type: cell-based
Procedure: as §1, §2, §3, §4, §5

CCOC(=O)[C@H]1CCCN(C(=O)Cc2cccs2)C1 [Example 30, (S)-Ethyl 1-(2-Thiopheneacetyl)-3-piperidinecarboxylate]
MSC (mononuclear leukocytes [1]): 10 μg μg/ml | MTC (mononuclear leukocytes [1]): 1 mg/mL | MSC (mononuclear leukocytes [2]): 10 μg μg/ml | MTC (mononuclear leukocytes [2]): 1 mg/mL
